Assays:
[1] = Phase III trials, CUSUM surveillance of prolapses and urinary incontinence; type: in vivo, women
Text: Phase III consisted of studies including 3000 women. The inclusion criteria were extended so that the women were older than those participating in phase II. Subjects were randomized to take either a placebo or NNC 46-0020 in one of two doses. […] As explained in detail below, this product has motivated the choice of parameters in the examples.
Early in phase III, a number of reports of prolapses and urinary incontinence were received. It was suspected that there were too many cases of prolapses and incontinence. Therefore, it was decided to set up a surveillance program, including expedited reporting of the events even though they are not classified as serious adverse events. Furthermore, investigators were instructed specifically to check for these types of events.
First, it was decided to set up separate programs for prolapses and incontinence, but later the etiology was suspected to be the same and therefore a combined program was used. The incidence of these events is poorly documented in the literature. There are a few reports on the prevalence and based on these, an incidence of 1%/year for each type of adverse event was chosen. This gives an estimated 60 events during the first year of the trial, distributed with 40 in the treatment group, and 20 in the placebo group. An alternative considered was to have a relative risk of 2, corresponding to an expected number of […]. The lower limit c was chosen as 0.
Due to the focus on these events, a number of adverse events were reported each day, and safety committee meetings were held each week. […] At this time, the process had passed not only the limit corresponding to the incidence of 1% of each type of adverse event, but also the limit corresponding to an incidence of 10%. Such “overrunning” seems to be unavoidable for multi-center studies. The distribution 44 to 1 corresponds to a relative risk of 22 for NNC 46-0020. […]

[2] = Phase II trials, adverse events; type: in vivo, women
Text: The present invention was used to test a particular drug compound, NNC 46-0020, which was designed to protect healthy women from getting osteoporosis.

relative risk of prolapses and incontinence ([1]; phase III, drug (two doses pooled, 2/3 of patients) versus placebo (1/3), at the committee meeting where the alarm limit was passed): 22
Structure (SMILES): COc1ccc2c(c1)OC(C)(C)[C@@H](c1ccccc1)[C@@H]2c1ccc(OCCN2CCCC2)cc1 [NNC 46-0020]
final analysis of risk of prolapses and incontinence ([1]; after termination of the phase III trials, relative risk estimate reduced): increased risk of prolapses and incontinence
distribution of adverse events (prolapses and incontinence), treatment group to placebo group ([1]; phase III, unblinded cases at the committee meeting where the alarm limit was passed): 44 to 1
adverse events in phase II trials [2]: without major problems regarding adverse events

Source: patent US6639515B2, “Surveillance system for adverse events during drug development studies” (Novo Nordisk A/S, priority 2001, dated 2003)
